Laboratory results reported in patent publication US20140024663A1, “ATB(0,+) AMINO ACID TRANSPORTER AS A DRUG TARGET FOR TREATMENT OF ESTROGEN RECEPTOR-POSITIVE BREAST CANCER” (GEORGIA HEALTH SCIENCES UNIVERSITY RESEARCH INSTITUTE, INC., priority 2012, published 2014).

Tests used:
[1] = test system: MCF10A cells; test: Analysis of autophagy (LC3 localization); format: cell-based, human; conditions: α-MT 2.5 mM, 48 h
Experimental: (§1) FIGS. 6A to 6C. Effects of SLC6A14 blockade with α-MT in breast cancer cells. In FIG. 6A, MCF10A (a non-malignant mammary epithelial cell line), MCF7 (an ER-positive breast cancer cell line), and MB231 (an ER-negative breast cancer cell line) cells were treated with or without 2.5 mM α-MT for 24, 48, or 72 h and then used for analysis of asparagine synthetase (ASNS) and CHOP mRNA levels. In FIG. 6B, MCF7, MB231 and MCF10A cells were treated with or without 2.5 mM α-MT for 48 h and then used for immunocytochemical analysis of the constitutively expressed LC-3. In FIG. 6C, MCF7 cells were treated with (“b” and “c”) or without (“a”) α-MT (2.5 mM) for 48 h and then used for electron microscopy. […]
(§2) Analysis of autophagy. Autophagy was analyzed as described previously (Periyasamy-Thandavan et al., 2010, Autophagy; 6:19-35; and Samaddar et al., 2008, Mol Cancer Ther; 7:2977-2987) by monitoring the localization pattern of constitutively expressed LC3 as well as that of ectopically expressed GFP-LC3. […] At the end of the treatment, cells were fixed with 4% paraformaldehyde and examined by fluorescence microscopy to count the number of cells with punctate GFP-LC3. Autophagosomal proteolysis was quantified as described previously (Periyasamy-Thandavan et al., 2010, Autophagy; 6:19-35). […]

[2] = test system: MB231 cells; test: Analysis of autophagy (LC3 localization); format: cell-based, human; conditions: MB231, α-MT 2.5 mM, 48 h
Experimental: as §1, §2

[3] = test system: mTOR in SLC6A14-negative cells (MB231); test: mTOR activity by western blot (phosphorylation of S6 and S6 kinase); format: cell-based, human; conditions: α-MT 2.5 mM, 24, 48 or 72 h
Experimental: (§3) FIGS. 9A to 9D. Influence of α-MT on mTOR activity In FIG. 9A, MCF7 and MB231 cells were treated without or with α-MT (2.5 mM) for 24 h, 48 h, or 72 h, and then the cell lysates were used for western blot. Influence of α-MT with or without 3-MA on cell death. In FIG. 9B, MCF7, MB231, and MCF10A cells were treated for 48 h without or with α-MT (2.5 mM), 3-MA (10 mM), or α-MT (2.5 mM) plus 3-MA (10 mM), and then analyzed for cell death by propidium iodide (PI) staining and FACS-based cell cycle analysis. In FIG. 9C, MCF7 cells were treated for 48 h without or with α-MT (2.5 mM), 3-MA (10 mM), or α-MT (2.5 mM) plus 3-MA (10 mM), and then analyzed for apoptotic cell death by annexin V labeling. In FIG. 9D, MCF7 and MB231 cells were treated without or with 2.5 mM α-MT for 24 h, 48 h, or 72 h. Cell lysates were then used for western blot analysis of lamin A degradation product using an antibody that recognizes specifically the proteolytic cleavage product. β-Actin was used as an internal control.

[4] = test system: mTOR in MCF7 cells; test: as above; format: cell-based, human; conditions: MCF7, α-MT 2.5 mM, 24, 48 or 72 h
Experimental: as §3

[5] = test system: MCF7 cells; test: Cell death by propidium iodide staining and FACS cell cycle analysis; format: cell-based, human; conditions: 48 h
Experimental: Fluorescence-activated cell sorting (FACS) was used to monitor cell death. MCF7 cells were treated with or without α-MT, 3-MA, or α-MT plus 3-MA. Control and treated cells were then fixed in 50% ethanol, treated with 0.1% sodium citrate, 1 mg/ml RNase A, and 50 μg/ml propidium iodide, and then subjected to FACS analysis (FACS Caliber, Becton Dickinson).

[6] = test system: MCF7 cells; test: Xenograft in nude mice with estrogen pellets, tumor growth; format: in vivo, Balb/c nude mice; conditions: MCF7 (ER-positive) in the presence of estrogen administration, α-MT in drinking water 2 mg/ml
Experimental: FIGS. 10A to 10D. In vivo efficacy of α-MT in the treatment of ER-positive breast cancer. ZR75.1 (FIG. 10A), MCF7 (FIG. 10B), and MB-231 (FIG. 10C) cells were injected subcutaneously (sc) into Balb/c nude mice (10×10^6 cells per injection site). For MCF7 cells, slow-releasing estrogen pellets were implanted to support the tumor growth. For each cell line, the control group received water with sucrose and the treatment group received α-MT (2 mg/ml) in water with sucrose. Tumor size was measured periodically. NS, not statistically significant (p>0.05); *, p<0.005; two-tailed unpaired Student's t test. In FIG. 10D, Balb/c nude mice were divided into two groups; the control group received water with sucrose and the treatment group received α-MT (2 mg/ml) in water with sucrose for 2 weeks. Mice were then bled and α-MT in plasma was determined by HPLC. Xenograft in nude mice. Human breast cancer cells (ZR75.1, MCF7, and MB231) were injected s.c. close to the lower mammary gland on the right side of Balb/c nude mice (10×10^6 cells per injection site). Only for MCF7 cells, slow-releasing estrogen pellets were implanted to support the tumor growth. Implantation of estrogen pellets was done as follows. […] Tumor size in control and treatment groups was measured periodically by caliper and […] was calculated using the formula (width^2×length)/2.

With `CC(N)(Cc1c[nH]c2ccccc12)C(=O)O` (racemic) [α-MT, α-methyl-DL-tryptophan] the “autophagy (LC3 localization)” value [1] was “did not undergo autophagy”, the “autophagy (LC3 localization)” value [2] was “did not undergo autophagy” and the mTOR activity [3] was “not affected”. For the same compound, the “mTOR inhibition: phosphorylation of S6 and S6 kinase” value [4] was “decreased phosphorylation”, the “cell death (propidium iodide, cell cycle analysis)” value ([5]; MCF7, α-MT 2.5 mM alone) was “significant cell death” and the “cell death (propidium iodide, cell cycle analysis)” value ([5]; MCF7, α-MT 2.5 mM with cotreatment 3-MA 10 mM) was “further potentiated”. The “tumor growth in xenograft” value [6] was “did not affect the growth”.
